Laboratory results taken from patent publication US20230364057A1, “BACTERIAL DNA GYRASE INHIBITORS AND METHODS OF USE THEREOF” (THE FLORIDA INTERNATIONAL UNIVERSITY BOARD OF TRUSTEES, priority 2022, published 2023).
Values after ≈ are worked out from the molar mass of the structure shown. “Also recorded” adds a separate entry of the source. Read-outs that look alike come from different tables or passages of the source.

How the values were obtained:
[1] = target: E. coli DNA topoisomerase IV (Escherichia coli (strain K12), UniProt P0AFI2+P20083); assay: E. coli DNA topoisomerase IV relaxation assay (gel-based); assay type: biochemical
Sequence of E. coli DNA topoisomerase IV (P0AFI2 whole entry, looked up): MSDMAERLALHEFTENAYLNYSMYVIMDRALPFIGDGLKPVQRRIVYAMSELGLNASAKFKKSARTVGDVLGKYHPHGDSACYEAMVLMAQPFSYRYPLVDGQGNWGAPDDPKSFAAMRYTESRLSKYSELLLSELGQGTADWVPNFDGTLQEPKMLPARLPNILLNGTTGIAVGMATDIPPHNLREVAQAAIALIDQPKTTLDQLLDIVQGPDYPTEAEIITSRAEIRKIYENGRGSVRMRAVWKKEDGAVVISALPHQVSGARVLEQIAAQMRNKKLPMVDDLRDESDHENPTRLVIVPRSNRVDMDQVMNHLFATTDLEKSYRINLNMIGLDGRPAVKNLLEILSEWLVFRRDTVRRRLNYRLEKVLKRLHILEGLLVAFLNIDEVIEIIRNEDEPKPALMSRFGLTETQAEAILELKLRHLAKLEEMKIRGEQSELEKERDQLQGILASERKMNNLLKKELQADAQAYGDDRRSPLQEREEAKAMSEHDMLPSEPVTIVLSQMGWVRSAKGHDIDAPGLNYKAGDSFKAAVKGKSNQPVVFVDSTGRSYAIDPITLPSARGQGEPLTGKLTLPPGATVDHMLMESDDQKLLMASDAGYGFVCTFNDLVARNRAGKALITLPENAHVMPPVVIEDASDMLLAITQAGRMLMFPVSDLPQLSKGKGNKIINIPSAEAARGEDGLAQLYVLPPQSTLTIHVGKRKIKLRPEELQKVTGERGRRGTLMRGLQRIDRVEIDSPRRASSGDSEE
Sequence of E. coli DNA topoisomerase IV (P20083 whole entry, looked up): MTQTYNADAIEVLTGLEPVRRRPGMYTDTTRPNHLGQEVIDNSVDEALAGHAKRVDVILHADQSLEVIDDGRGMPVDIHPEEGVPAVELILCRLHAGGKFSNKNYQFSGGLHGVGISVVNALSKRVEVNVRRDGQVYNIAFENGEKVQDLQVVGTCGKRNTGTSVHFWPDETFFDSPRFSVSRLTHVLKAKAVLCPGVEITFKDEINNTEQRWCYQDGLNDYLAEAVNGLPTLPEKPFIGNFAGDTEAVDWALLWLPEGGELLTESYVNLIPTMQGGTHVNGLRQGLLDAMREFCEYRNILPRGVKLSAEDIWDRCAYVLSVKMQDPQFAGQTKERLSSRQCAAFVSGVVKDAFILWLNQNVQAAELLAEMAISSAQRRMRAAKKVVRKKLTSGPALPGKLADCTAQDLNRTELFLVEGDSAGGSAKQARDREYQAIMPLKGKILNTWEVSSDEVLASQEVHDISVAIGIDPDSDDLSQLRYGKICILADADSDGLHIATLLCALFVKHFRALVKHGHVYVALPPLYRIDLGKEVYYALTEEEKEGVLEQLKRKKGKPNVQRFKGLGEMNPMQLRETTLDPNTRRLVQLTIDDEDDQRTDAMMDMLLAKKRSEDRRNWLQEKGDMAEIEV
Method: Relaxation assays by E. coli DNA topoisomerase IV and the ATPase assays were performed. […] Lane 1 is supercoiled plasmid pAB1. […] The supercoiled, fluorescently-labeled plasmid pAB1_FL905 was used.

[2] = target: human DNA topoisomerase IIα (Homo sapiens (Human), UniProt P11388); assay: Agarose gel-based inhibition assay against human DNA topoisomerase IIα; assay type: biochemical; conditions: gallates at 100 µM
Sequence of human DNA topoisomerase IIα (P11388 whole entry): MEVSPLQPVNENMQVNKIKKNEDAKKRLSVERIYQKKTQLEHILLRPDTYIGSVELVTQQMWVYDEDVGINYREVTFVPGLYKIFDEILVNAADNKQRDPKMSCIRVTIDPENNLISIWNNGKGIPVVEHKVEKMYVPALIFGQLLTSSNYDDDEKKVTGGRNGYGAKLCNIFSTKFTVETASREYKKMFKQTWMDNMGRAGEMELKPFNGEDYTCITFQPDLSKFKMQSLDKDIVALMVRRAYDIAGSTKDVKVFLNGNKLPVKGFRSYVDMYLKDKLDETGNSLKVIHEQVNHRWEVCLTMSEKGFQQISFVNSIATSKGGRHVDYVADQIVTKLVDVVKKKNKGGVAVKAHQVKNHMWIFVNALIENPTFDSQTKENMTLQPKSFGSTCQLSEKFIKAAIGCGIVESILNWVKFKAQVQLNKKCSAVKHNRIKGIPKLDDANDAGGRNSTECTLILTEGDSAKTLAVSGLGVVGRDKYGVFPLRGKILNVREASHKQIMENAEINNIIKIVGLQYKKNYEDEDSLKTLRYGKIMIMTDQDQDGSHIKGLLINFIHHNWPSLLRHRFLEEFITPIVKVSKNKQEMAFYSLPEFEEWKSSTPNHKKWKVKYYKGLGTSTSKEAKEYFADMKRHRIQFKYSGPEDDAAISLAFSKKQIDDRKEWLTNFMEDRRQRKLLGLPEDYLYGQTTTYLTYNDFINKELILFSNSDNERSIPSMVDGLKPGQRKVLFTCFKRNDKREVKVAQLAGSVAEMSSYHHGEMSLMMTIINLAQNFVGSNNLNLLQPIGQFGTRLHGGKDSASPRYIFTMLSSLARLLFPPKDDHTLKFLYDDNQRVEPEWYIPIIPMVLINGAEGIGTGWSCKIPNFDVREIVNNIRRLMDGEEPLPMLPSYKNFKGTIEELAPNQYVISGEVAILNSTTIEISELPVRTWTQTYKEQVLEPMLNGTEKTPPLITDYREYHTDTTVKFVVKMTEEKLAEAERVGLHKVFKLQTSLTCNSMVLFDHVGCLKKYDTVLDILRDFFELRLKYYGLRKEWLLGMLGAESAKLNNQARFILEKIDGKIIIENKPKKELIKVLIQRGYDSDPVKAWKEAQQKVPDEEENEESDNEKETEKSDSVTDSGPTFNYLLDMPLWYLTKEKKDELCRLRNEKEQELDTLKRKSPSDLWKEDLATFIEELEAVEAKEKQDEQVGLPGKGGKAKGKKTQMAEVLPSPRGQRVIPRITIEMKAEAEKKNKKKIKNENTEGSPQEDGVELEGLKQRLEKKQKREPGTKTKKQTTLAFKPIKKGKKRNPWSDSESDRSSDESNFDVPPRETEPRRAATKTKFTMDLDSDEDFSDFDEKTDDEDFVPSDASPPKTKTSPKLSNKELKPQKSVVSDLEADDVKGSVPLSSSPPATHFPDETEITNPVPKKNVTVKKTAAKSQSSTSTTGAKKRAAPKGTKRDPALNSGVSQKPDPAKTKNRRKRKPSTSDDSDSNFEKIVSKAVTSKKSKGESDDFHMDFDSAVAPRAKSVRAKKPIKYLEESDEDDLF

[3] = target: human DNA topoisomerase I (Homo sapiens (Human), UniProt P11387); assay: Human DNA topoisomerase I inhibition; assay type: biochemical; conditions: gallates at 100 µM
Sequence of human DNA topoisomerase I (P11387 whole entry): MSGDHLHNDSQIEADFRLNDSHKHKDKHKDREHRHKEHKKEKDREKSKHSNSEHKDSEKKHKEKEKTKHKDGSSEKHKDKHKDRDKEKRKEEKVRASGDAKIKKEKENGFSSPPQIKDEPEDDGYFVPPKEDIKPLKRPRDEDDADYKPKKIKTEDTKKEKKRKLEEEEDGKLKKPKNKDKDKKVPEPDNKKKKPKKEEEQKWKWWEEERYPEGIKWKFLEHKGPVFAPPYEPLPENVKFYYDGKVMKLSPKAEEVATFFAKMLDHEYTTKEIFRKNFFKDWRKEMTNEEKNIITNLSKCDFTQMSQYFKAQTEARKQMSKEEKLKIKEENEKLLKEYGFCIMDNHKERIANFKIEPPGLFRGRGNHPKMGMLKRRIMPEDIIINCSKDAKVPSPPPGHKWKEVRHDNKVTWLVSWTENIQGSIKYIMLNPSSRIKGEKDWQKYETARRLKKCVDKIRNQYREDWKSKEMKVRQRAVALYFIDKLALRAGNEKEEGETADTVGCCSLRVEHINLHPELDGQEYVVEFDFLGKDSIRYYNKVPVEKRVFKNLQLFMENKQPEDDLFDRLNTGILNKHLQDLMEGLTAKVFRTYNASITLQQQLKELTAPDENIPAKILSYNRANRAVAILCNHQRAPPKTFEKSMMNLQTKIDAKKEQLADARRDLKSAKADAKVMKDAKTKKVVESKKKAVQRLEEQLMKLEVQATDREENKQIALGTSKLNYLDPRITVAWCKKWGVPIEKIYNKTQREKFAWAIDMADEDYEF

[4] = target: Mtb DNA gyrase (Mycobacterium tuberculosis (strain ATCC 25618 / H37Rv), UniProt P9WG45+P9WG47); assay: Mtb DNA gyrase inhibition assay (gel-based); assay type: biochemical
Method: The IC50 against E. coli (A) and Mtb (C) gyrase were determined using the gel-based gyrase inhibition assays. The gyrase mediated DNA cleavage assays (B and D) were performed using pBR322. (A) 229 inhibits E. coli gyrase. Lane 1, rx pAB1. […] Lane 1, rx pAB1. […] 100 µM of CPDs were used. Symbols rx, nk, In, and sc represent relaxed, nicked, linear, and supercoiled DNA, respectively.
Agarose gel-based DNA gyrase inhibition assays were performed in 30 µL of 1 ×gyrase buffer (35 mM Tris-HCl, 24 mM KCl, 4 mM MgCl2, 2 mM DTT, 1.75 mM ATP, 0.1 mg/mL BSA, 6.5% glycerol, pH7.5) containing 400 ng of rx pAB1 at 37° C. 100 ng of DNA gyrase was used to supercoil the rx pAB1 in the presence of different concentrations of a gyrase inhibitor. After 15 minutes of incubation with the inhibitor at 37° C., all reactions were stopped with 1 µL of stop solution (3% SDS and 250 mM EDTA). Samples were analyzed by electrophoresis in 1% w/v agarose gels followed by ethidium bromide staining and photographed under UV light.

[5] = target: T1, E. coli DNA gyrase (Escherichia coli (strain K12), UniProt P0AES4+P0AES6); assay: biochemical; assay type: biochemical
[6] = target: T1, E. coli DNA gyrase; assay: E. coli DNA gyrase ATPase assay; assay type: biochemical; conditions: AB-MECA and gallates at 100 µM
Method: E. coli DNA gyrase ATPase assays were performed in 60 µL of 1 ×gyrase ATPase buffer (10 mM Tris.HCl (pH 7.5), 0.2 mM EDTA, 1 mM magnesium chloride, 1 mM DTT, and 2% (w/v) glycerol) containing 50 nM E. coli DNA gyrase, 200 ng rx pAB1, 0.8 mM Phosphoenol pyruvate, 1.2 units of Pyruvate kinase, 1.7 units of lactate dehydrogenase, and 0.4 mM of NADH at 37° C. After the reaction mixtures are incubated on ice for 5 minutes, 2 mM of ATP is added to initiate the reaction. Absorbance at OD340nm is monitored for up to 30 minutes at 37° C. in a spectrophotometer.

[7] = target: T1, E. coli DNA gyrase; assay: DNA gyrase mediated DNA cleavage assay; assay type: biochemical; conditions: pBR322
Method: 250 ng of supercoiled pBR322 plasmid were incubated with 50 nM of E. coli DNA gyrase in reactions containing 35 mM Tris-HCl, 24 mM KCl, 4 mM MgCl2, 2 mM DTT, 0.1 mg/mL BSA, 6.5% glycerol, and 1.75 mM ATP, in presence of 200 µM of compounds, at 37° C. for 15 min. Then, 0.2% (w/v) of SDS and 0.1 mg/mL proteinase K were added, and samples were incubated at 37° C. for 1 h. […] Samples were examined by electrophoresis in 1% w/v agarose gel containing 0.5 µg/mL ethidium bromide and photographed under UV light.

[8] = target: E. coli DNA topoisomerase I (Escherichia coli (strain K12), UniProt P06612); assay: E. coli DNA topoisomerase I inhibition; assay type: biochemical; conditions: gallates at 100 µM
Sequence of E. coli DNA topoisomerase I (P06612 whole entry, looked up): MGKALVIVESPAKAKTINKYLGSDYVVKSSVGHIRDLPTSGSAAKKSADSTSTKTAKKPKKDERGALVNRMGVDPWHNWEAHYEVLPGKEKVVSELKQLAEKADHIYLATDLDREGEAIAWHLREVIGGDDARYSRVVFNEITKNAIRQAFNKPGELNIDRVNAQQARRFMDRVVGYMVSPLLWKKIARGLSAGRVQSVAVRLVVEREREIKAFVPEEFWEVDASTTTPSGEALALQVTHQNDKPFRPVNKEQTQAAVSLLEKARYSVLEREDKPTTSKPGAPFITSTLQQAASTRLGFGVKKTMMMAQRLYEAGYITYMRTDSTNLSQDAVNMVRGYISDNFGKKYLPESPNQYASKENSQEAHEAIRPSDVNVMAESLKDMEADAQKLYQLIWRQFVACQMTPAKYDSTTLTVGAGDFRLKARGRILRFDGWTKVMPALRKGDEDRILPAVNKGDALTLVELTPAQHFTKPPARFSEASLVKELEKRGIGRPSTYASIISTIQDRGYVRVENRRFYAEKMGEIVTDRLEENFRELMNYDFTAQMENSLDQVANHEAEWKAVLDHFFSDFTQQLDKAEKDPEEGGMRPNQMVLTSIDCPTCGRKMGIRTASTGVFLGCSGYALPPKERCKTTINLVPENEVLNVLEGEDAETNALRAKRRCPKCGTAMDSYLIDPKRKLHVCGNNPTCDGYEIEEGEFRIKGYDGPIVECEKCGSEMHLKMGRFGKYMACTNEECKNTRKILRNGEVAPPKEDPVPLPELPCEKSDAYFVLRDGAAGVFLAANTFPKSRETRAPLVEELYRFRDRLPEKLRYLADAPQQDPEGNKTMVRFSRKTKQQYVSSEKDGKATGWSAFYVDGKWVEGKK

[9] = target: T1, E. coli DNA gyrase; assay: SDFQ-based DNA gyrase inhibition assay; assay type: biochemical; conditions: SDFQ-based, three independent experiments; read-out: IC50 against E. coli DNA gyrase
Method: 100 ng of DNA gyrase was used to supercoil the rx pAB1_FL905 in the presence of different concentrations of a gyrase inhibitor. […] The IC50 values were estimated by nonlinear fitting of the following equation: […]
where F is the fluorescence intensity at the x concentration of an min inhibitor. Fmax and Fmin are the maximum and minimum fluorescence of the DNA sample, respectively. P is a slope parameter.

[10] = target: T1, E. coli DNA gyrase; assay: Agarose gel-based DNA gyrase inhibition assay; assay type: biochemical; conditions: 200 µM of compounds
Method: 100 ng of DNA gyrase was used to supercoil the rx pAB1 in the presence of different concentrations of a gyrase inhibitor. […] Samples were analyzed by electrophoresis in 1% w/v agarose gels followed by ethidium bromide staining and photographed under UV light.

[11] = target: human DNA topoisomerase 2α (Homo sapiens (Human), UniProt P11388); assay: Human DNA topoisomerase 2α-mediated DNA cleavage assay; assay type: biochemical; conditions: pBR322
Sequence of human DNA topoisomerase 2α (P11388 whole entry): as the sequence (P11388 whole entry) above

[12] = test system: B. subtilis (ATCC 6633); assay: Minimum inhibitory concentration, broth microdilution
Method: Antibacterial minimum inhibitory concentrations (MICs) were obtained from three independent experiments using broth microdilution methods in 96-well plates according to Clinical and Laboratory Standards Institute guidelines. Cells were culture from singles colonies in MHIIB medium for 24 h at 37° C. in agitation (200 RPM). The cultures were then diluted using the same media to reach an OD600 of 0.1. Then, 50 µL of the diluted cultures were added to the plates holding 50 µL of serially diluted compounds in MHIIB. The plates were incubated at 37° C. for 20 h. The starting inoculum was fixated to 10^5 colony-forming units per ml.

[13] = target: T1, E. coli DNA gyrase; conditions: known inhibitors of the LOPAC library; read-out: inhibition IC50 against E. coli DNA gyrase; cited from earlier work
[14] = test system: M. abscessus; assay: MIC against M. abscessus; assay type: cell-based, Mycobacterium abscessus; conditions: Mycobacteroides abscessus
[15] = test system: NCI panel of 60 cancer cell lines; conditions: up to 1 mM; results of NCI DTP; cited from earlier work
[16] = in vitro; conditions: human
[17] = test system: Mtb; assay: Mtb whole cell assay (% inhibition, MIC); assay type: cell-based, Mycobacterium tuberculosis; conditions: Mycobacterium tuberculosis
[18] = test system: S. aureus (ATCC 14775); assay: Minimum inhibitory concentration, broth microdilution; conditions: Staphylococcus aureus, ATCC14775, read-out: MIC (µM) Sa
[19] = target: T1, E. coli DNA gyrase; assay: SDFQ HTS primary assay (1536-well, pAB1_FL905); assay type: biochemical; conditions: read-out: inhibition activities against E. coli DNA gyrase
Method: SDFQ HTS primary assay using pAB1_FL905 was performed in 2 µL of (1 xDNA gyrase buffer: 20 mM Tris-Acetate pH 7.9, 50 mM KAc, 10 mM MgCl2, 2 mM DTT, 1 mM ATP, 0.1 mg/mL BSA). […] 3) Spun plate at 800 rpm for 30 seconds.

[20] = IC50 against E. coli DNA gyrase

In the case of `CNC(=O)[C@H]1O[C@@H](n2cnc3c(NCc4cccc(I)c4)nc(Cl)nc32)[C@H](O)[C@@H]1O` [chloro-IB-MECA, reference compound], the “inhibition of E. coli DNA topoisomerase IV” value [1] is reported as “did not inhibit”, the “inhibition of human DNA topoisomerase IIα” value [2] is reported as “did not inhibit” and the “inhibition of human DNA topoisomerase I” value [3] is reported as “did not inhibit”. For the same compound, the “inhibition of Mtb DNA gyrase activities” value [4] was “did not inhibit”, the IC50 [5, 20] was 2.4 µM and the IC50 ([5]; read-out: IC50 against E. coli DNA gyrase) was under 5 µM. The “inhibition of the ATPase activities of E. coli DNA gyrase” value [6] was “ATP competitive inhibitors; also recorded: inhibition”, the “E. coli DNA gyrase-mediated DNA breaks and nicking” value [7] was “did not DNA double stranded DNA breaks” and the “inhibition of E. coli DNA topoisomerase I” value [8] was “did not inhibit”.

For `CC(OC(=O)c1cc(O)c2ccccc2c1O)C(=O)Nc1ccc(C(N)=O)cc1` (stereo not drawn) [Compound 40, 1-[(4-carbamoylphenyl)carbamoyl]ethyl 1,4-dihydroxynaphthalene-2-carboxylate], the IC50 [9] was 47.6 ± 3.7 µM, the “inhibition of human DNA topoisomerase IIα” value [2] was “does not inhibit” and the “inhibition of E. coli DNA gyrase activities” value [10] was “completely inhibited”. For the same compound, the “human topoisomerase 2α-mediated DNA nicks and double-stranded breaks” value [11] was “does not cause”, the IC50 ([5]; IC50 (50-200 µM), bin of Table 2) was 50 to 200 µM and the IC50 [5, 20] was 50 µM. The “E. coli DNA gyrase-mediated DNA breaks and nicking” value [7] was “causes DNA gyrase-mediated double stranded DNA breaks and DNA nicking; also recorded: causes gyrase-mediated DNA double-stranded breaks and single-stranded nicks”, the “anti Bacillu subtilis activities” value [12] was 39 µg/mL and the MIC ([12]; Bacillus subtilis, ATCC6633, read-out: Minimum Inhibitory Concentration B.subtilis) was 100 µM (≈ 39.4 µg/mL).

In the case of `CCn1cc(C(=O)O)c(=O)c2cc3c(cc21)OCO3` [oxolinic acid], the IC50 [13] is given as over 30 µM.

In the case of `C[n+]1c(-c2ccc(NC(=O)c3ccc(C(=O)Nc4ccc(-c5cn6ccccc6[n+]5C)cc4)cc3)cc2)cn2ccccc21` [Compound 263], the MIC [14] is given as over 200 µM, the IC50 ([4]; Table 10, read-out: IC50 (µM) Mtb gyrase) is given as 7.7 µM and the “cytotoxicity against the NCI panel of 60 cancer cell lines” value [15] is given as “no cytotoxicity”. For the same compound, the IC50 [16] was over 200 µM, the MIC [17] was 11.3 µM and the MIC [18] was 0.39 µM.

In the case of `O=C(O)C1=CC(=C(c2ccc(O)c(C(=O)O)c2)c2ccc(O)c(C(=O)O)c2)C=CC1=O` [aurintricarboxylic acid], the inhibition at 5 µM [19] is reported as over 40%.

`CC1COc2c(N3CCN(C)CC3)c(F)cc3c(=O)c(C(=O)O)cn1c23` (stereo not drawn) [ofloxacin] gave an inhibition at 5 µM [19] of over 40%.
